# EP2272817A1, “PAI-1 INHIBITOR” (Institute of Medicinal Molecular Design, Inc., priority 2008, dated 2009)
# Molecular target: T1, recombinant human PAI-1 (Homo sapiens, UniProt P05121)
# Assay: biochemical
# Conditions: read-out: Inhibition Rate of PAI Activity (%)
# Description: To this solution, 6 µl of 80 nM recombinant human PAI-1 (Molecular Innovations, Inc.) solution prepared with Tris buffer was added, and the plate was incubated for 5 minutes at room temperature. Furthermore, 30 µl of 800 IU/ml two-chain tPA (Activity Standard; American diagnostica, inc.) prepared with Tris buffer was added, and the mixed solution was incubated for 15 minutes at room temperature. Then, 30 µl of 400 µM fluorogenic substrate (Pyr-Gly-Arg-MCA; Peptide Institute, Inc.) for tPA prepared with Tris buffer was added and reacted for 30 minutes at room temperature.
# 50 mM Tris, 150 mM NaCl, 10 µg/ml BSA, 0.01 % Tween80 (SIGMA-ALDRICH Corporation)
# T1 sequence (P05121 24-402): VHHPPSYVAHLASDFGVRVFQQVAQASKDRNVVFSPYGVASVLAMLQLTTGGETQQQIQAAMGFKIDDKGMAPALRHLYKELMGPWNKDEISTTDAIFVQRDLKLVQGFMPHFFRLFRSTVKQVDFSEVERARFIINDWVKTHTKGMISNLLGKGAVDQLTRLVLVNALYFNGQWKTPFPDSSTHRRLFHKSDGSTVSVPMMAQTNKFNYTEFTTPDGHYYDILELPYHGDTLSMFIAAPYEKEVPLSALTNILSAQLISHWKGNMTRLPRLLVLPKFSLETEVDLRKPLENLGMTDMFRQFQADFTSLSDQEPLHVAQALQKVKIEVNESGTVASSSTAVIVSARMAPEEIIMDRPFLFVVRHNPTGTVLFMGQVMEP
inhibition at 5 µM [%],inhibition at 10 µM [%],inhibition at 25 µM [%],SMILES
23,46,96,O=C(O)CCc1cc(-c2ccc(OC(F)(F)F)cc2)ccc1Oc1ccc(OC(F)(F)F)cc1 [Compound 16]
29,62,99,O=C(O)CCc1cc(-c2ccc(OC(F)(F)F)cc2)ccc1OCc1ccc(OC(F)(F)F)cc1 [Compound 62]

# Same assay, conditions: read-out: Inhibition Rate of PAI-1 Activity (%)
inhibition at 5 µM [%],inhibition at 10 µM [%],inhibition at 25 µM [%],SMILES
79,96,,Cc1cc(N(C)C)c(-c2ccc(OC(F)(F)F)cc2)cc1N(CCCCc1ccccc1)C(=O)C(=O)O [Compound 246]
,14,75,CSc1ccc(-c2ccc(N(Cc3ccc(C(C)(C)C)cc3)C(=O)C(=O)O)cc2)cc1 [Compound 134]
28,63,70,COc1cc(-c2ccc(OC(F)(F)F)cc2)cc(/C=C/C(=O)O)c1OCc1ccc(C(C)(C)C)cc1 [Compound 81]
46,87,95,CC(C)(C)c1ccc(Oc2cc(Oc3ccc(OC(F)(F)F)cc3)ccc2/C=C/C(=O)O)cc1 [Compound 89]
93,97,,CCCCCCOc1ccc(-c2ccc(OC(F)(F)F)cc2)cc1N(CCCCc1ccccc1)C(=O)C(=O)O [Compound 245]
,6,67,CC(C)(C)c1ccc(CN(C(=O)C(=O)O)c2ccc(-c3ccc(Cl)cc3)cc2)cc1 [Compound 135]
13,27,,O=C(O)C(=O)N(CCc1ccccc1)c1ccc(-c2ccc(OC(F)(F)F)cc2)cc1 [Compound 223]
58,86,86,CC(C)(C)c1ccc(CN(C(=O)C(=O)O)c2ccccc2Sc2ccc(OC(F)(F)F)cc2)cc1 [Compound 631]
43,80,98,CC(C)Oc1ccc(N(CCCc2ccccc2)C(=O)C(=O)O)c(-c2ccc(OC(F)(F)F)cc2)c1 [Compound 239]
15,31,,Cc1cccc(CN(C(=O)C(=O)O)c2ccc(-c3ccc(OC(F)(F)F)cc3)cc2)c1 [Compound 125]
20,54,93,CC(C)(C)c1ccc(CN(C(=O)C(=O)O)c2ccccc2Oc2ccc(OC(F)(F)F)cc2)cc1 [Compound 153]
64,87,95,CCC(Oc1ccc(-c2ccc(OC(F)(F)F)cc2)cc1Oc1ccc(C(C)(C)C)cc1)C(=O)O (stereo not drawn) [Compound 114]
24,50,96,CC(C)(C)c1ccc(COc2ccc(-c3ccc(OC(F)(F)F)cc3)cc2OCCCC(=O)O)cc1 [Compound 109]
28,77,96,CC(C)(C)c1ccc(COc2ccc(Oc3ccc(OC(F)(F)F)cc3)cc2/C=C/C(=O)O)cc1 [Compound 95]
75,91,91,CC(C)(C)c1ccc(-c2ccc(Oc3ccc(-c4ccc(OC(F)(F)F)cc4)cc3/C=C/C(=O)O)c(CCC(=O)O)c2)cc1 [Compound 540]
34,59,90,O=C(O)COc1cc(-c2ccc(OC(F)(F)F)cc2)ccc1OCCCCc1ccccc1 [Compound 115]
7,15,38,O=C(O)C(=O)N(Cc1ccc(F)cc1)c1ccc(-c2ccc(OC(F)(F)F)cc2)cc1 [Compound 155]
33,75,87,CC(C)(C)c1ccc(CN(C(=O)C(=O)O)c2ccc(-c3ccc(OC(F)(F)F)cc3)cc2C(F)(F)F)cc1 [Compound 150]
64,89,82,CC(C)(C)c1ccc(CN(C(=O)C(=O)O)c2ccc(-c3ccccc3OC(F)(F)F)cc2)cc1 [Compound 201]
,3,20,O=C(O)C(=O)N(Cc1ccccc1)c1ccc(Oc2ccc(OC(F)(F)F)cc2)cc1 [Compound 154]
22,41,87,CN(C(=O)C(=O)O)c1ccc(OCc2ccc(OC(F)(F)F)cc2)c(OCc2ccc(OC(F)(F)F)cc2)c1 [Compound 623]

inhibition at 5 µM [%],inhibition at 10 µM [%],inhibition at 25 µM [%],SMILES
22,46,92,CC(C)(C)c1ccc(COc2ccc(Nc3ccc(OC(F)(F)F)cc3)cc2CCC(=O)O)cc1 [Compound 412]
44,79,84,CC(C)(C)c1ccc(CN(C(=O)C(=O)O)c2ccc(-c3ccc(OC(F)(F)F)cc3)c(C(F)(F)F)c2)cc1 [Compound 166]
77,93,> 99,CC(C)(C)c1ccc(-c2ccc(Oc3ccc(-c4ccc(OC(F)(F)F)cc4)cc3CCC(=O)O)c(CCC(=O)O)c2)cc1 [Compound 541]
88,94,,CCCCCOc1ccc(-c2ccc(OC(F)(F)F)cc2)cc1N(CCCCCc1ccccc1)C(=O)C(=O)O [Compound 242]
43,83,91,Cc1c(-c2ccc(OC(F)(F)F)cc2)cccc1N(Cc1ccc(C(C)(C)C)cc1)C(=O)C(=O)O [Compound 177]
27,50,88,O=C(O)C(=O)N(CCCCc1ccccc1)c1ccc(-c2ccc(OC(F)(F)F)cc2)cc1 [Compound 225]
,32,82,CC(C)(C)c1ccc(CN(C(=O)C(=O)O)c2ccc(Oc3ccc(OC(F)(F)F)cc3)cc2)cc1 [Compound 132]
83,78,,O=C(O)C(=O)N(CCCCc1ccccc1)c1ccc(N2CCCCC2=O)c(-c2ccc(OC(F)(F)F)cc2)c1 [Compound 250]
52,82,96,CCCOc1ccc(N(CCCc2ccccc2)C(=O)C(=O)O)c(-c2ccc(OC(F)(F)F)cc2)c1 [Compound 232]
59,91,84,CC(C)(C)c1ccc(CN(C(=O)C(=O)O)c2ccc(C(F)(F)F)cc2-c2ccc(OC(F)(F)F)cc2)cc1 [Compound 169]
69,91,97,CC(C)(C)c1ccc(-c2ccc(N(Cc3cccc(OC(F)(F)F)c3)C(=O)C(=O)O)cc2)cc1 [Compound 203]
77,94,93,CCCCCOc1ccc(-c2ccc(OC(F)(F)F)cc2)cc1N(Cc1ccccc1)C(=O)C(=O)O [Compound 195]
61,86,95,CCCOc1ccc(-c2ccc(OC(F)(F)F)cc2)cc1N(CCCCc1ccccc1)C(=O)C(=O)O [Compound 236]
59,92,91,Cc1ccc(N(Cc2ccc(C(C)(C)C)cc2)C(=O)C(=O)O)cc1OCc1ccc(OC(F)(F)F)cc1 [Compound 625]
41,88,93,Cc1cc(-c2ccc(OC(F)(F)F)cc2)cc(C)c1N(Cc1ccc(C(C)(C)C)cc1)C(=O)C(=O)O [Compound 152]
39,70,94,CCCOc1ccc(N(Cc2ccccc2)C(=O)C(=O)O)cc1-c1ccc(OC(F)(F)F)cc1 [Compound 210]
58,85,> 99,CC(C)(C)c1ccc(-c2ccc(N(Cc3ccc(Cl)cc3)C(=O)C(=O)O)cc2)cc1 [Compound 204]
63,95,90,CC(C)(C)c1ccc(CN(C(=O)C(=O)O)c2c(Cl)cc(-c3ccc(OC(F)(F)F)cc3)cc2Cl)cc1 [Compound 173]
,4,61,Cc1ccc(-c2cccc([N+](=O)[O-])c2)cc1N(Cc1ccc(C(C)(C)C)cc1)C(=O)C(=O)O [Compound 138]
22,49,,O=C(O)C(=O)N(Cc1ccc(Cl)cc1)c1ccc(-c2ccc(OC(F)(F)F)cc2)cc1 [Compound 124]
27,62,> 99,O=C(O)C(=O)N(Cc1ccc(-c2ccccc2)cc1)c1ccc(-c2ccc(OC(F)(F)F)cc2)cc1 [Compound 161]

SMILES,inhibition at 5 µM [%],inhibition at 10 µM [%],inhibition at 25 µM [%]
CC(C)(C)c1ccc(CN(C(=O)C(=O)O)c2ccc(-c3ccc(OC(F)(F)F)cc3)cc2)cc1 [Compound 133],80,92,

# Molecular target: T1, recombinant human PAI-1
# Assay: Test Example 2: Human PAI-1 Inhibitory Activity (pH 7.4 HEPES buffer, 10 minutes incubation with two-chain tPA)
# Assay type: biochemical
# Set-up: purchased Molecular Innovations, Inc
# Conditions: read-out: Inhibition Rate of PAI-1 Activity (%)
# Description: 0.1 M HEPES, 0.1 M NaCl. 1 mM EDTA. 0.1 % Polyethylene glycol 8,000 (Hampton Research Corporation),
# 2 mM Dimethyldecylphoshine oxide [Apo-10] (Fluka Corporation)
inhibition at 0.1 µM [%],inhibition at 0.3 µM [%],inhibition at 1 µM [%],inhibition at 3 µM [%],SMILES
21,22,96,> 99,CC(C)(C)c1cccc(Oc2cc(-c3cccc(OC(F)(F)F)c3)ccc2/C=C/C(=O)O)c1 [Compound 514]
3,13,84,> 99,CC(C)(C)c1ccc(Oc2cc(-c3ccc(C(C)(C)C)cc3)ccc2OCC(=O)O)cc1 [Compound 446]
0,9,27,98,CC(C)(C)c1ccc(Oc2ccc(-c3ccc(OC(F)(F)F)cc3)cc2OCC(=O)O)cc1 [Compound 302]

SMILES,inhibition at 0.1 µM [%],inhibition at 0.3 µM [%],inhibition at 1 µM [%],inhibition at 3 µM [%]
CCCCCOc1cc(Oc2ccc(OC(F)(F)F)cc2)ccc1N(CCCCc1ccccc1)C(=O)C(=O)O [Compound 362],11,18,61,> 99
